We go through five molecules from patent publication US20100251434A1, “METHOD FOR GROWING SUGARCANE” (SYNGENTA CROP PROTECTION, INC., priority 2007, published 2010).

Settings in all cases: for Culm Diameter / Leaf Width / Plant Height / Tillers: 42 days after planting
Assay [1] relates to sugar cane Variety RB 86-7515. Briefly: Greenhouse pot test, effect of formulated clothianidin on vigour. The format is in vivo.
Description: Greenhouse test with sugarcane buds growing in pots were conducted to study the effect of clothianidin equivalent to an application rate of 200 g ai. ha^−1 on “vigour”, evaluating tillers, plant height, leaf width and culm diameter. This trial was conducted on sugar cane Variety RB 86-7515.
1) carretel with one bud treated with clothianidin (200 g ai. ha^−1) 2) carretel with one bud treated with clothianidin (200 g ai. ha^−1)+15% v/v of polymer 3) stalk with 3 buds untreated 4) carretel with one bud untreated+15% v/v of polymer 5) carretel with one bud untreated 6) stalk with 3 buds treated with clothianidin (200 g ai. ha^−1).
Twenty 1 L pots were filled with 16 L of clay soil, 1.6 L of sand and 8 g of nitrogen, 28 g of phosphorus (P2O5) and 16 g of potassium (K2O). Six carretels of 4 cm length with one bud were planted in each pot (treatments 1, 2, 4 and 5). Two stalks with three buds were planted in each control pot (treatments 3 and 6) to simulate conventional planting. A layer of 3 cm of soil was used to cover the carretels. The carretels of treatments 1 and 2 were treated with 200 g ai.ha^−1 of clothianidin, by dipping the carretels in a slurry for 3 min. The stalks were treated simulating a furrow application at 100 L.ha^−1 of slurry. The pots were maintained with adequate moisture during the test. Evaluations of: plant height, leaf width, culm diameter and number of tillers were performed at 20, 30 and 42 days after planting.
Assay [2] relates to sugar cane Variety RB 86-7515. As to the kind of experiment: Greenhouse pot test, effect of formulated abamectin on vigour. The format is in vivo.
Description: Greenhouse test with sugarcane buds growing in pots were conducted to study the effect of formulated abamectin regarding “vigour”, tillers, plant height, leaf width and culm diameter on sugar cane Variety RB 86-7515.
1) carretel with one bud treated with abamectin 2) carretel with one bud treated with abamectin+15% v/v of polymer 3) stalk with 3 buds untreated 4) carretel with one bud untreated 5) carretel with one bud untreated+15% v/v of polymer 6) stalk with 3 buds treated with abamectin.
Twenty 1 L pots were filled with 16 L of clay soil, 1.6 L of sand and 8 g of nitrogen, 28 g of phosphorus (P2O5) and 16 g of potassium (K2O). Six carretels of 4 cm length with only one bud were planted in each pot (treatments 1, 2, 4 and 5). Two stalks with three buds were planted in each control pot (treatments 3 and 6) to simulate conventional planting. A layer of 3 cm of soil was used to cover the carretels. The carretels of treatments 1, 2 were treated with 200 ml/ha of abamectin, by dipping the carretels in the slurry for 3 min, based on the uptake capacity of carretels. The stalks were treated simulating a furrow application at 100 L.ha^−1 of slurry. Experimental design adopted was randomized complete block with four replications. The pots were maintained with adequate moisture during the test. Evaluations of: plant height, leaf width, culm diameter and number of tillers were done at 20, 30 and 42 days after planting.
In assay [3] the test system is sugar cane Variety RB 86 7515. Briefly: Greenhouse pot test, effect of formulated imidacloprid on vigour. The format is in vivo.
Excerpt: 1) carretel with one bud treated with Imidacloprid (1200 g. ha^−1) 2) carretel with one bud treated with Imidacloprid (1200 g. ha^−1)+15% v/v of polymer 3) stalk with 3 buds untreated 4) carretel with one bud untreated 5) carretel with one bud untreated+15% v/v of polymer 6) stalk with 3 buds treated with Imidacloprid (1200 g. ha^−1).
Twenty 1 L pots were filled with 16 L of clay soil, 1.6 L of sand and 8 g of nitrogen, 28 g of phosphorus (P2O5) and 16 g of potassium (K2O). Six carretels of 4 cm length with one bud were planted in each pot (treatments 1, 2, 4 and 5). Two stalks with three buds were planted in each control pot (treatments 3 and 6) to simulate conventional planting. A layer of 3 cm of soil was used to cover the carretels. The carretels of treatments 1 and 2 were treated with 1200 g ai.ha^−1 of imidacloprid, by dipping the carretels in the slurry for 3 min, based on the uptake capacity of carretels. The stalks were treated simulating a furrow application at 100 L.ha^−1 of slurry. Experimental design adopted was randomized complete block with four replications. The pots were maintained with adequate moisture during the test. Evaluations of: plant height, leaf width, culm diameter and number of tillers were done at 20, 30 and 42 days after planting.
The subject of assay [4] is sugarcane Variety RB 86-7515. Briefly: Greenhouse pot test, effect of formulated thiamethoxam on vigour. The assay is classed as in vivo, sugar cane. Here is the method: This trial was conducted on Variety RB 86-7515.
Assay [5] deals with sugar cane Variety RB 86-7515. Briefly: Greenhouse pot test, effect of formulated fipronil on vigour. The format is in vivo.
Description: Greenhouse test with sugarcane buds growing in pots were conducted to study the effect of fipronil equivalent to an application rate of 200 g. ha^−1 on “vigour”, evaluating tillers, plant height, leaf width and culm diameter on sugar cane Variety RB 86-7515.
1) carretel with one bud treated with fipronil (200 g. ha^−1) 2) carretel with one bud treated with fipronil (200 g. ha^−1)+15% v/v of polymer 3) stalk with 3 buds untreated 4) carretel with one bud untreated 5) carretel with one bud untreated+15% v/v of polymer 6) stalk with 3 buds treated with fipronil (200 g. ha-1).
Twenty 1 L pots were filled with 16 L of clay soil, 1.6 L of sand and 8 g of nitrogen, 28 g to of phosphorus (P2O5) and 16 g of potassium (K2O). Six carretels of 4 cm length with one bud were planted in each pot (treatments 1, 2, 4 and 5). Two stalks with three buds were planted in each control pot (treatments 3 and 6) to simulate conventional planting. A layer of 3 cm of soil was used to cover the carretels. The carretels of treatments 1 and 2 were treated with 200 g ai.ha^−1 of fipronil, by dipping the carretels in the slurry for 3 min, based on the uptake capacity of carretels. The stalks were treated simulating a furrow application at 100 L.ha^−1 of slurry. Experimental design adopted was randomized complete block with four replications. The pots were maintained with adequate moisture during the test. Evaluations of: plant height, leaf width, culm diameter and number of tillers were done at 20, 30 and 42 days after planting.
The mark [6] stands for this setting: carretel with one bud, dipped in slurry, 200 g ai/ha (0.0 for Untreated + polymer).
[7] abbreviates: stalk with 3 buds, simulated furrow application, 200 g ai/ha.
The mark [8] stands for this setting: carretel with one bud, dipped in slurry, 100 g ai/ha (0.0 for Untreated + Polymer).
Setting [9] is: stalk with 3 buds, simulated furrow application, 100 g ai/ha.
Setting [10] is: carretel with one bud, dipped in slurry, 1200 g ai/ha (0.0 for Untreated + Polymer).
Setting [11] is: stalk with 3 buds, simulated furrow application, 1200 g ai/ha.
[12] abbreviates: carretel with one bud, dipped in slurry, 420 g ai/ha (0.0 for Untreated + Polymer).
Setting [13] is: stalk with 3 buds, simulated furrow application, 420 g ai/ha.

Consider `CN/C(=N\[N+](=O)[O-])NCc1cnc(Cl)s1` [Clothianidin, clothianidin], for which, in assay [1] (setting [6]), the “Culm Diameter” value is given as 8.75 mm, the “Leaf Width” value was determined as 17.17 mm, the “Plant Height” value is recorded as 25.02 cm and the Tillers came out at 14.5 number. In assay [1] (result in words, carretels), the “number of tillers in comparison with the corresponding control (untreated, one-bud)” value is given as “increased number of tillers” and the “plant height in comparison with the corresponding control (untreated, one-bud)” value is recorded as “slight reduction in the plant height”. In assay [1] (setting [7]), the “Culm Diameter” value is reported as 11.25 mm, the “Leaf Width” value is given as 21.5 mm, the “Plant Height” value is listed as 22.73 cm and the Tillers is 17.0 number.
abamectin: in assay [2] (setting [8]), the “Culm Diameter” value is on record as 7.67 mm, the “Leaf Width” value is given as 14.58 mm, the “Plant Height” value came out at 22.22 cm and the Tillers turned out to be 14 number. Further, in assay [2] (result in words), the “number of tillers in comparison with the control” value (shortened to “number … with the control”) is recorded as “increase in the number of tillers” and the “plant height in comparison with the control” value was “decrease in plant height”. Besides, in assay [2] (setting [9]), the “Culm Diameter” value was 12.25 mm, the “Leaf Width” value was 20.33 mm, the “Plant Height” value is given as 22.54 cm and the Tillers was 19.5 number.
For `O=[N+]([O-])NC1=NCCN1Cc1ccc(Cl)nc1` [Imidacloprid], in assay [3] (setting [10]), the “Culm Diameter” value was determined as 8.75 mm, the “Leaf Width” value was found to be 15.91 mm, the “Plant Height” value amounted to 24.0 cm and the Tillers was 15.25 number. For the same molecule, in assay [3] (result in words), the “effect on vigour compared with the other active ingredients” value is on record as “less pronounced than with the other active ingredients” and the “number … with the control” value is recorded as “increase in the number of tillers”. For the same molecule, in assay [3] (setting [11]), the “Culm Diameter” value is listed as 9.49 mm, the “Leaf Width” value is recorded as 20.16 mm, the “Plant Height” value is on record as 23.49 cm and the Tillers is reported as 12.0 number.
As to `CN1COCN(Cc2cnc(Cl)s2)/C1=N\[N+](=O)[O-]` [Thiamethoxam, thiamethoxam], in assay [4] (setting [12]), the “Culm Diameter” value stood at 7.97 mm, the Leaf Width was 14.07 mm, the “Plant Height” value came to 23.67 cm and the Tillers is 15.5 number. Moreover, in assay [4] (result in words, carretels), the “number of tillers in comparison with the corresponding controls” value is recorded as “increased number of tillers” and the “plant height in comparison with the corresponding controls” value is on record as “reduced plant height”. Further, the “increase in "quality" compared with the other treatments” value in assay [4] (result in words, not apparent from the listed parameters) was “increase in “quality” greater than the other treatments”. In assay [4] (setting [13]), the “Culm Diameter” value was 10.17 mm, the Leaf Width is on record as 19.5 mm, the “Plant Height” value is 26.52 cm and the Tillers is 14.75 number.
In the case of `N#Cc1nn(-c2c(Cl)cc(C(F)(F)F)cc2Cl)c(N)c1[S+]([O-])C(F)(F)F` (stereo not drawn) [Fipronil, fipronil], in assay [5] (setting [6]), the “Culm Diameter” value is 8.69 mm, the “Leaf Width” value was 14.16 mm, the “Plant Height” value is listed as 20.62 cm and the Tillers is 17.25 number. In assay [5] (result in words), the “height of the resultant plants in comparison with the control” value was “decreased the height of the resultant plants” and the “number … with the control” value was “increased the number of tillers”. Moreover, in assay [5] (setting [7]), the “Culm Diameter” value is on record as 10.75 mm, the “Leaf Width” value is on record as 18.91 mm, the “Plant Height” value was 22.12 cm and the Tillers is given as 16.5 number.
